PMC8213730, “α-Helical peptidic scaffolds to target α-synuclein toxic species with nanomolar affinity” (Nature Communications, 2021)

Tests used:
[1] = target: T1, α-synuclein (αS) sonicated fibrils (Homo sapiens, UniProt P37840, N122C); experiment: dcFCCS binding of labelled peptide to αS sonicated fibrils
T1 construct: made in house; host or cells: Escherichia coli BL21 (DE3), pET21a
Method: (§1) This variant was expressed and purified as described above but including 5 mM DTT in all purification steps. The protein was labeled with maleimide-modified Alexa Fluor 488 (AF488) (Invitrogen, Carlsbad, USA) for 15–20 h at 4 °C in the dark. After quenching the reaction with 10 mM DTT, free unreacted dye in the protein solution was subsequently separated using a P10 desalting column (GE Healthcare, Waukesha, USA), and the labeled protein solution was flash frozen with liquid nitrogen and stored at −80 °C. […] The same labeling and purification strategy were followed as for αS, although in this case the unreacted free dye was removed from the protein solution using a polyacrylamide desalting column (Thermo Fisher Scientific, Waltham, USA).
(§2) For the isolation of type B* oligomers purified αS was dialyzed against Milli-Q water and lyophilized for 48 h in aliquots of 6 mg. The aliquots were resuspended in 500 μL of PBS pH 7.4 to a final concentration of ca. 800 μM, filtered through 0.22 μm filters and incubated at 37 °C without agitation for 20–24 h.

[2] = target: T2, α-synuclein (αS) type A* oligomers (Homo sapiens, UniProt P37840, N122C); experiment: dcFCCS binding of labelled peptide to αS type A* oligomers
T2 construct: made in house; host or cells: Escherichia coli BL21 (DE3), pET21a

[3] = target: T3, α-synuclein (αS) type B* oligomers (Homo sapiens, UniProt P37840, N122C); experiment: dcFCCS binding of labelled peptide to αS type B* oligomers
T3 construct: made in house; host or cells: Escherichia coli BL21 (DE3), pET21a
Method: as §1, §2

[4] = test system: α-synuclein (αS) amyloid aggregation; experiment: αS amyloid aggregation kinetics by thioflavin-T fluorescence; format: biochemical; settings: 70 μM αS with 35, 14, 7 (3.5) μM peptide, PBS, 37 °C
Method: αS amyloid aggregation was monitored in a 96 wells plate (non-treated) (Sarstedt, Germany) containing Teflon polyballs (1/8′′ diameter) (Polysciences Europe GmbH, Eppelheim, Germany) as described by Pujols and coworkers. Each well contained 150 μL solutions of 70 μM αS in PBS buffer with 40 μM thioflavin-T and the corresponding concentration of peptide. Plates were incubated at 37 °C, 100 rpm in an orbital culture shaker Max-Q 4000 (Thermo Fisher Scientific, Waltham, USA). Aggregation was analyzed every 2 h using a Victor3.0 Multilabel Reader Software-PerkinElmer 2030. (PerkinElmer, Waltham, USA). End-point measurements were performed after 32 h of incubation. Fluorescence intensity was measured in triplicate by exciting with a 430–450 nm filter and collecting the emission with a 480–510 nm filter. The resulting kinetics were normalized to the maximum fluorescence of the αS control (untreated).

[5] = target: α-synuclein type B* oligomers (AF488-labelled αS N122C) (UniProt P37840); experiment: dual-color fluorescence cross-correlation spectroscopy (dcFCCS)
[6] = target: α-synuclein sonicated amyloid fibrils (AF488-labelled αS N122C) (UniProt P37840); experiment: as above
[7] = target: α-synuclein type A* oligomers (AF488-labelled αS N122C) (UniProt P37840); experiment: as above
[8] = target: α-synuclein N122C labelled with Alexa Fluor 488, monomer (UniProt P37840); experiment: FCS molecular brightness; sonicated fibril sample; brightness of the aggregates compared with that of the αS monomer; average number of αS molecules per aggregate

In the case of `CC[C@H](C)[C@H](NC(=O)[C@H](CCCCN)NC(=O)[C@H](CCC(=O)O)NC(=O)[C@H](CCCCN)NC(=O)[C@H](CO)NC(=O)[C@H](CCCCN)NC(=O)[C@H](CCCNC(=N)N)NC(=O)[C@H](Cc1ccccc1)NC(=O)[C@H](Cc1ccccc1)NC(=O)[C@H](CC(=O)O)NC(=O)CNC(=O)[C@H](CC(C)C)NC(=O)[C@@H](N)CC(C)C)C(=O)NCC(=O)N[C@@H](CCCCN)C(=O)N[C@@H](CCC(=O)O)C(=O)N[C@@H](Cc1ccccc1)C(=O)N[C@@H](CCCCN)C(=O)N[C@@H](CCCNC(=N)N)C(=O)N[C@H](C(=O)N[C@H](C(=O)N[C@@H](CCC(N)=O)C(=O)N[C@@H](CCCNC(=N)N)C(=O)N[C@H](C(=O)N[C@@H](CCCCN)C(=O)N[C@@H](CC(=O)O)C(=O)N[C@@H](Cc1ccccc1)C(=O)N[C@@H](CC(C)C)C(=O)N[C@@H](CCCNC(=N)N)C(=O)N[C@@H](CC(N)=O)C(=O)N[C@@H](CC(C)C)C(=O)N[C@H](C(=O)N1CCC[C@H]1C(=O)N[C@@H](CCCNC(=N)N)C(=O)N[C@H](C(=O)N[C@@H](CCC(=O)O)C(=O)N[C@@H](CO)C(=O)O)[C@@H](C)O)C(C)C)[C@@H](C)CC)C(C)C)[C@@H](C)CC` [LL-37], the Kd [1] is reported as 5.14 nM, the Kd [2] is reported as 1.92 nM and the Kd [3] is reported as 3.62 nM.

For “LELLAKLLKLLKDLLGKLL [All_Leu19, variant of All-Leu devoid of the last three C-terminal residues]”, the “anti-aggregation (inhibitory) activity, Th-T titration” value [4] was “retained the inhibitory activity”.

LELLEELLKLLEDLLKKLL [Anionic_scaffold] was tested, and the “anti-aggregation (inhibitory) activity, Th-T titration” value [4] was “does not inhibit”.

In the case of “LELLEKLLKLLKDLLKKLL [Scaffold_19, only Leu, Asp, Glu and Lys]”, the “anti-aggregation (inhibitory) activity, Th-T titration” value [4] is reported as “same anti-aggregation activity than the parental variant”.

“LL-37 with a single engineered N-terminal cysteine labelled with Atto647N (peptide)” showed a stoichiometry N (binding sites per aggregate) [5] of 64, a stoichiometry N (binding sites per aggregate) [6] of 181 and a stoichiometry N (binding sites per aggregate) [7] of 3.

“α-synuclein N122C labelled with Alexa Fluor 488, monomer (from UniProt P37840 1-140) (natural protein)” showed a stoichiometry N (αS molecules per aggregate) [8] of 107.
